For test [1], the target named is T1, Brd4 bromodomain 1 (BRD4(1)) (Homo sapiens, UniProt O60885).
T1 construct: made in house; host or cells: E. coli BL21(DE3)
Description: Inhibition of tetra-acetylated histone H4 binding to BET bromodomain, HTRF/FRET. Conditions: HTRF, 2 h incubation at room temperature. Here is the method:
Proteins are cloned and overexpressed with a N-terminal 6×His tag, then purified by nickel affinity followed by size exclusion chromatography. Briefly, E. coli BL21(DE3) cells are transformed with a recombinant expression vector encoding N-terminally Nickel affinity tagged bromodomains from Brd2, Brd3, Brd4. Cell cultures were incubated at 37° C. with shaking to the appropriate density and induced overnight with IPTG. The supernatant of lysed cells was loaded onto Ni-IDA column for purification. Eluted protein was pooled, concentrated and further purified by size exclusion chromatography. Fractions representing monomeric protein were pooled, concentrated, aliquoted, and frozen at −80° C. for use in subsequent experiments.
Binding of tetra-acetylated histone H4 and BET bromodomains is confirmed by a Homogenous Time Resolved Fluorescence Resonance Energy Transfer (HTRF®) method, N-terminally His-tagged bromodomains (200 nM) and biotinylated tetra-acetylated historic H4 peptide (25-50 nM, Millipore) are incubated in the presence of Europium Cryptate-labeled streptavidin (Cisbio Cat. #610SAKLB) and XL665-labeled monoclonal anti-His antibody (Cisbio Cat. #61HISXLB) in a white 96 well microtiter plate (Greiner). For inhibition assays, serially diluted test compound is added to these reactions in a 0.2% final concentration of DMSO. Duplicate wells are used for each concentration tested. Final buffer concentrations are 30 mM HEPES pH 7.4, 30 mM NaCl, 0.3 mM CHAPS, 20 mM phosphate pH 7.0, 320 mM KF, 0.08% BSA. After a 2 h incubation at room temperature, fluorescence is measured at 665 and 620 nm with a SynergyH4 plate reader (Biotek). The binding inhibitory activity is shown by a decrease in 665 nm relative to 620 nm fluorescence. IC50 values are determined from a dose response curve.
On the technique in general: In TR-FRET formats the signal depends on donor and acceptor labels being close together.

Test [2] deals with MV4-11 cells. Description: Washout proliferation: effect of covalent binding on durability of proliferation. The test is classed as cell-based, Human. To be noted: IC90 concentration for 24 h, then washout; for Percent proliferation relative to DMSO, 24 h: 24 h post washout; for Percent proliferation relative to DMSO, 48 h: 48 h post washout; for Percent proliferation relative to DMSO, 72 h: 72 h post washout. Here is the method:
MV4-11 cells (CRL-9591) were plated at a density of 5×10^4 cells per well in 96 well flat bottom plates and treated with IC90 concentration of covalent vs. non-covalent control compound or DMSO (0.1%) in IMDM media containing 10% FBS and penicillin/streptomycin. Triplicate wells were used for each concentration and a well containing only media is used as a control. Plates were incubated at 37° C., 5% CO2 for 24 h after which the compounds were removed, replaced with media, and proliferation was measured at 24, 48 and 72 hours post washout by adding 20 μL of the Cell Titer Aqueous One Solution (Promega) to each well and incubated at 37° C., 5% CO2 for an additional 3-4 h. The absorbance was read at 490 nm in a spectrophotometer and the percentage of cell titer relative to DMSO-treated cells was calculated after correcting for background by subtracting the blank well's signal. IC50 values are calculated using the GraphPad Prism software.

Test [3] has as its system hIL-6 mRNA. Description: Inhibition of hIL-6 mRNA transcription in LPS-stimulated U937 cells. Format: cell-based. Conditions: Homo sapiens, U-937; U937 cells differentiated with PMA, 1 h pretreatment, LPS 3 h; read-out: IL-6 activity. How it is done: Human leukemic monocyte lymphoma U937 cells (CRL-1593.2) were plated at a density of 3.2×10^4 cells per well in a 96-well plate in 100 μL RPMI-1640 containing 10% FBS and penicillin/streptomycin, and differentiated into macrophages for 3 days in 60 ng/mL PMA ([…]) at 37° C. in 5% CO2 prior to the addition of compound. The cells were pretreated for 1 h with increasing concentrations of test compound in 0.1% DMSO prior to stimulation with 1 ug/mL lipopolysaccharide from Escherichia coli. Triplicate wells were used for each concentration. The cells were incubated at 37° C., 5% CO2 for 3 h before the cells were harvested. At time of harvest, media was removed and cells were rinsed in 200 μL PBS. Cells were harvested using the mRNA Catcher PLUS kit according to manufacturer's instructions. The eluted mRNA was then used in a one-step quantitative real-time PCR reaction using components of the RNA UltraSense™ One-Step Kit (Life Technologies) together with Applied Biosystems TaqMan® primer-probes for hIL-6 and Cyclophilin. Real-time PCR plates were run on a ViiA™7 real time PCR machine (Applied Biosystems), data was analyzed, normalizing the Ct values for hIL-6 to an internal control, prior to determining the fold expression of each sample, relative to the control.

Test [4] deals with c-myc. In words: Inhibition of cMYC expression in cancer cell lines (mRNA, real-time PCR). Format: cell-based. To be noted: Human AML MV4-11 cells, 3 h. How it is done: MV4-11 cells (CRL-9591) were plated at a density of 2.5×10^4 cells per well in 96 well U-bottom plates and treated with increasing concentrations of test compound or DMSO) (0.1%) in IMDM media containing 10% FBS and penicillin/streptomycin, and incubated for 3 h at 37° C. Triplicate wells were used for each concentration. Cells were pelleted by centrifugation and harvested using the mRNA Catcher PLUS kit according to manufacturer's instructions. The eluted mRNA isolated was then used in a one-step quantitative real-time PCR reaction, using components of the RNA UltraSense™ One-Step Kit (Life Technologies) together with Applied Biosystems TaqMan® primer-probes for cMYC and Cyclophilin. Real-time PCR plates were run on a ViiA™7 real time PCR machine (Applied Biosystems), data was analyzed, normalizing the Ct values for cMYC to an internal control, prior to determining the fold expression of each sample, relative to the control.
Background: In qPCR the cycle at which signal appears reflects the starting amount.

Test [5] deals with BET bromodomains. In words: Thermal shift assay to monitor covalent binding to BET bromodomains. Conditions: 100 μM compound, 5 μM protein, 30 minutes or 4 hours at room temperature. Here is the method: 5 μM of purified bromodomain protein was incubated with 5× SYPRO® Orange (Molecular Probes) at a final concentration of 20 mM HEPES pH 7.4, 100 mM NaCl in the presence of 100 μM compound or DMSO (0.2%) in a fast 96 well optical plate (Applied Biosystems). Samples were incubated at room temperature for 30 minutes or 4 hours and ramped from 25° C. to 95° C. in a ViiA7 real-time PCR machine (Applied Biosystems). The resulting fluorescence data was analyzed and melting temperatures calculated using Protein Thermal Shift™ Software v1.0 (Life Technologies). A thermal shift indicates covalent binding of the inhibitor to the protein.

Test [6] concerns Human AML MV-4-11 cells. In words: Inhibition of cell proliferation in cancer cell lines. Format: cell-based. To be noted: MV4-11, 72 h. Here is the method:
MV4-11 cells (CRL-9591) were plated at a density of 5×10^4 cells per well in 96 well flat bottom plates and treated with increasing concentrations of test compound or DMSO (0.1%) in IMDM media containing 10% FBS and penicillin/streptomycin. Triplicate wells were used for each concentration and a well containing only media was used as a control. Plates were incubated at 37° C., 5% CO2 for 72 h before adding 20 μL of the CellTiter Aqueous One Solution (Promega) to each well and incubated at 37° C., 5% CO2 for an additional 3-4 h. The absorbance was read at 490 nm in a spectrophotometer and the percentage of cell titer relative to DMSO-treated cells was calculated after correcting for background by subtracting the blank well's signal. IC50 values were calculated using the GraphPad Prism software.

Structures are written as SMILES. “Also recorded” adds a separate entry of the source.

For the molecule `Cc1noc(C)c1-c1ccc(=O)n(Cc2ccc(C3CO3)c(F)c2)c1` (stereo not drawn) [Example 1, 5-(Dimethyl-1,2-oxazol-4-yl)-1-(3-fluoro-4-(oxiran-2-yl)benzyl)pyridin-2(1H)-one], the IC50 in test [1] is at most 300 nM; in test [3] it was 3000 to 30000 nM; in test [4], 3000 to 30000 nM; in test [6] it was 3000 to 30000 nM. Besides, the “Percent proliferation relative to DMSO, 0 h” value in test [2] worked out at 30%. In addition, the “Percent proliferation relative to DMSO, 24 h” value in test [2] was 2%. The “Percent proliferation relative to DMSO, 48 h” value in test [2] is recorded as 10%. Also, the “Percent proliferation relative to DMSO, 72 h” value in test [2] was determined as 5%. Besides, in test [5], the “Thermal shift: covalent binding to bromodomain protein” value is recorded as “bind covalently; also recorded: time-dependent formation of the covalent complex”.

Take `Cc1noc(C)c1-c1ccc(=O)n(Cc2ccc(C3CO3)cc2)c1` (stereo not drawn) [Example 2, 5-(dimethyl-1,2-oxazol-4-yl)-1-{[4-(oxiran-2-yl)phenyl]methyl}-1,2-dihydropyridin-2-one]: the IC50 in test [1] is at most 300 nM; in test [3], 3000 to 30000 nM; in test [4] it was 3000 to 30000 nM; in test [6], 3000 to 30000 nM.

Regarding `Cc1noc(C)c1-c1cc(N)c(=O)n(Cc2ccc(C3CO3)cc2)c1` (stereo not drawn) [Example 3, 3-amino-5-(3,5-dimethylisoxazol-4-yl)-1-(4-(oxiran-2-yl)benzyl)pyridin-2(1H)-one], the IC50 is at most 300 nM in test [1], 300 to 3000 nM in test [3], 3000 to 30000 nM in test [4] and 3000 to 30000 nM in test [6].

In the case of `Cc1noc(C)c1-c1cc(N)c2ncn(Cc3ccc(C4CO4)cc3)c2c1` (stereo not drawn) [Example 4, 6-(Dimethyl-1,2-oxazol-4-yl)-1-{[4-(oxiran-2-yl)phenyl]methyl}-1H-1,3-benzodiazol-4-amine], in test [1], the IC50 was 300 to 3000 nM. In test [2], the “Percent proliferation relative to DMSO, 0 h” value is on record as 41%; the “Percent proliferation relative to DMSO, 24 h” value was determined as 0.2%; the “Percent proliferation relative to DMSO, 48 h” value stood at 15%; the “Percent proliferation relative to DMSO, 72 h” value came out at 13%. The IC50 in test [3] lay in the range of 300 to 3000 nM. This molecule had an IC50 in test [4] of 300 to 3000 nM. The “Thermal shift: covalent binding to bromodomain protein” value in test [5] was “bind covalently; also recorded: time-dependent formation of the covalent complex”. This molecule also came in with an IC50 in test [6] of 300 to 3000 nM.

On to `Cc1noc(C)c1-c1cnc2nc(C)n(Cc3ccc(CCCl)cc3)c2c1` [Example 5, 4-(1-(4-(2-Chloroethyl)benzyl)-2-methyl-1H-imidazo[4,5-b]pyridin-6-yl)-3,5-dimethylisoxazole], for which the IC50 is at most 300 nM in test [1] and 300 to 3000 nM in test [4].

Consider `Cc1noc(C)c1-c1cnc2nc(C)n(Cc3ccc(C(=O)CCl)cc3)c2c1` [Example 6, 2-Chloro-1-(4-((6-(3,5-dimethylisoxazol-4-yl)-2-methyl-1H-imidazo[4,5-b]pyridin-1-yl)methyl)phenyl)ethanone], for which the IC50 in test [1] was at most 300 nM.

As to `Cc1noc(C)c1-c1cnc2nc(C)n(Cc3ccc(CC4CO4)cc3)c2c1` (stereo not drawn) [Example 7, 3,5-Dimethyl-4-(2-methyl-1-(4-(oxiran-2-ylmethyl)benzyl)-1H-imidazo[4,5-b]pyridin-6-yl)isoxazole], the IC50 in test [1] was at most 300 nM.

Source of the values: patent publication US10231953B2, “Inhibitors of bromodomains” (Zenith Epigenetics Ltd., priority 2014, dated 2019).
